Assay [1] concerns the target T1, human orexin-2 receptor (hOX2R) (Homo sapiens, UniProt O43614).
T1 construct: expressed in transfected cells; host or cells: CHO cells (grown under G418)
T1 sequence (O43614 1-444): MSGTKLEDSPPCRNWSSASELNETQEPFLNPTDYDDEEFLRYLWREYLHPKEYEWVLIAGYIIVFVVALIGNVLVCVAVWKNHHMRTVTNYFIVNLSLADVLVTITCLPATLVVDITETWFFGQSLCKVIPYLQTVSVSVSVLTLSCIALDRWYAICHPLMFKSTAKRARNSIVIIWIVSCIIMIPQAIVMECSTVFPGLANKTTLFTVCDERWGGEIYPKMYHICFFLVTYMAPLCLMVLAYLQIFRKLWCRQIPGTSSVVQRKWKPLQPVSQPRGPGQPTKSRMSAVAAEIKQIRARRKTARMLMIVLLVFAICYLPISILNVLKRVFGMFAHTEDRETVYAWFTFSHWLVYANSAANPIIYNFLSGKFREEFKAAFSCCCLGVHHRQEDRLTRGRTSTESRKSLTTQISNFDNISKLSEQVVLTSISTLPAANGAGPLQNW
The assay can be described thus: FLIPR Ca2+ Flux Assay, CHO cells expressing the human orexin-2 receptor. In kind it is cell-based. The note with it: agonist 70 pM Ala-6,12 human orexin-A. As to the method:
The utility of the compounds in accordance with the present invention as orexin receptor OX1R and/or OX2R antagonists may be readily determined without undue experimentation by methodology well known in the art, including the “FLIPR Ca^2+ Flux Assay” (Okumura et al., Biochem. Biophys. Res. Comm. 280:976-981, 2001). In a typical experiment the OX1 and OX2 receptor antagonistic activity of the compounds of the present invention was determined in accordance with the following experimental method. For intracellular calcium measurements, Chinese hamster ovary (CHO) cells expressing the rat orexin-1 receptor or the human orexin-2 receptor, are grown in Iscove's modified DMEM containing 2 mM L-glutamine, […], 1% hypoxanthine-thymidine supplement, 100 U/ml penicillin, 100 μg/ml streptomycin and 10% heat-inactivated fetal calf serum (FCS). The cells are seeded at 20,000 cells/well into Becton-Dickinson black 384-well clear bottom sterile plates coated with poly-D-lysine. All reagents were from GIBCO-Invitrogen Corp. The seeded plates are incubated overnight at 37° C. and 5% CO2. Ala-6,12 human orexin-A as the agonist is prepared as a 1 mM stock solution in 1% bovine serum albumin (BSA) and diluted in assay buffer (HBSS containing 20 mM HEPES, 0.1% BSA and 2.5 mM probenecid, pH7.4) for use in the assay at a final concentration of 70 pM. Test compounds are prepared as 10 mM stock solution in DMSO, then diluted in 384-well plates, first in DMSO, then assay buffer. On the day of the assay, cells are washed 3 times with 100 μl assay buffer and then incubated for 60 min (37° C., 5% CO2) in 60 μl assay buffer containing 1 μM Fluo-4AM ester, 0.02% pluronic acid, and 1% BSA. The dye loading solution is then aspirated and cells are washed 3 times with 100 μl assay buffer. 30 μl of that same buffer is left in each well. Within the Fluorescent Imaging Plate Reader (FLIPR, Molecular Devices), test compounds are added to the plate in a volume of 25 μl, incubated for 5 min and finally 25 μl of agonist is added. Fluorescence is measured for each well at 1 second intervals for 5 minutes and the height of each fluorescence peak is compared to the height of the fluorescence peak induced by 70 pM Ala-6,12 orexin-A with buffer in place of antagonist. For each antagonist, IC50 value (the concentration of compound needed to inhibit 50% of the agonist response) is determined. Alternatively, compound potency can be assessed by a radioligand binding assay (described in Bergman et. al. Bioorg. Med. Chem. Lett. 2008, 18, 1425-1430) in which the inhibition constant (Ki) is determined in membranes prepared from CHO cells expressing either the OX1 or OX2 receptor. The intrinsic orexin receptor antagonist activity of a compound which may be used in the present invention may be determined by these assays.

Assay [2] has as its target T2, hOX1R (Homo sapiens, UniProt O43613).
T2 construct: expressed in transfected cells; host or cells: CHO cells (grown under G418)
T2 sequence (O43613 1-425): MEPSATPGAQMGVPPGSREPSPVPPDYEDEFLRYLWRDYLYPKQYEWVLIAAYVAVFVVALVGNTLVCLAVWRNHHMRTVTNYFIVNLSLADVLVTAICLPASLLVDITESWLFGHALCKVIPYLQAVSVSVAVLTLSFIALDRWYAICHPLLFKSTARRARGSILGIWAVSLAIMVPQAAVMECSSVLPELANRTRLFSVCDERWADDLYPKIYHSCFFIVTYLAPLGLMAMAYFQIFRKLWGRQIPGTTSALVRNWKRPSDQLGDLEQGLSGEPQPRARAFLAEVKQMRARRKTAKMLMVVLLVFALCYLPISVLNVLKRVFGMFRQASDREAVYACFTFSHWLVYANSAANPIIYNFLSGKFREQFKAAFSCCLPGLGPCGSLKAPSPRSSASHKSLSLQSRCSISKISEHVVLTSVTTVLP
The assay can be described thus: FLIPR Ca2+ Flux Assay, CHO cells expressing the orexin-1 receptor. In kind it is cell-based. The note with it: agonist 70 pM Ala-6,12 human orexin-A. Background: Calcium flux is commonly read through the fluorescence of an indicator in the cells.

Structures are written as SMILES.

The IC50 is the concentration needed to halve the response being measured. Lower therefore signals higher potency. With `Cc1ccnc(O[C@@H]2CC[C@@H](C)N(C(=O)c3ccccc3-n3nccn3)C2)c1` [Example 1, 4-Methyl-2-{[(3R,6R)-6-methyl-1-{[2-(2H-1,2,3-triazol-2-yl)phenyl]carbonyl}piperidin-3-yl]oxy}pyridine], the concentration for half-maximal inhibition (IC50) in assay [1] worked out at 16 nM. This lies in the double-digit nanomolar range.

Turning to `Cc1ccnc(O[C@@H]2CC[C@@H](C)N(C(=O)c3ccccc3-n3ncnn3)C2)c1` [Example 2, (2-(2H-Tetrazol-2-yl)phenyl)((2R,5R)-2-methyl-5-((4-methylpyridin-2-yl)oxy)piperidin-1-y1)methanone], the half-inhibitory concentration (IC50) in assay [1] was determined as 17 nM; in assay [2] it was 1480 nM. Take `Cc1ccnc(O[C@@H]2CC[C@@H](C)N(C(=O)c3ccsc3-n3nccn3)C2)c1` [Example 3, 4-methyl-2-{[(3R,6R)-6-methyl-1-{[2-(2H-1,2,3-triazol-2-yl)thiophen-3-yl]carbonyl}piperidin-3-yl]oxy}pyridine]: the half-maximal inhibitory concentration (IC50) in assay [1] stood at 44 nM; in assay [2], 1670 nM. Regarding `Cc1ccnc(O[C@@H]2CC[C@@H](C)N(C(=O)c3c(F)cccc3-n3nccn3)C2)c1` [Example 4, 2-{[(3R,6R)-1-{[2-fluoro-6-(2H-1,2,3-triazol-2-yl)phenyl]carbonyl}-6-methylpiperidin-3-yl]oxy}-4-methylpyridine], the 50% inhibitory concentration (IC50) came out at 28 nM in assay [1] and 875 nM in assay [2].

As to `Cc1ccnc(O[C@@H]2CC[C@@H](C)N(C(=O)c3ccc(Cl)cc3-n3nccn3)C2)c1` [Example 5, 2-{[(3R,6R)-1-{[4-chloro-2-(2H-1,2,3-triazol-2-yl)phenyl]carbonyl}-6-methylpiperidin-3-yl]oxy}-4-methylpyridine], the IC50 worked out at 29 nM in assay [1] and 1620 nM in assay [2]. As for `Cc1ccnc(O[C@@H]2CC[C@@H](C)N(C(=O)c3ccc(F)cc3-n3nccn3)C2)c1` [Example 6, 2-{[(3R,6R)-1-{[4-fluoro-2-(2H-1,2,3-triazol-2-yl)phenyl]carbonyl}-6-methylpiperidin-3-yl]oxy}-4-methylpyridine], the IC50 in assay [1] was 35 nM; in assay [2] it was 2290 nM. In the case of `Cc1ccnc(O[C@@H]2CC[C@@H](C)N(C(=O)c3ccc(C)cc3-n3nccn3)C2)c1` [Example 7, 4-methyl-2-{[(3R,6R)-6-methyl-1-{[4-methyl-2-(2H-1,2,3-triazol-2-yl)phenyl]carbonyl}piperidin-3-yl]oxy}pyridine], the concentration for half-maximal inhibition (IC50) is 59 nM in assay [1] and 2340 nM in assay [2]. `COc1ccc(C(=O)N2C[C@H](Oc3cc(C)ccn3)CC[C@H]2C)c(-n2nccn2)n1` [Example 8, 6-methoxy-3-({(2R,5R)-2-methyl-5-[(4-methylpyridin-2-yl)oxy]piperidin-1-yl}carbonyl)-2-(2H-1,2,3-triazol-2-yl)pyridine]: the IC50 in assay [1] is 117 nM; in assay [2] it was more than 10000 nM. Turning to `Cc1ccnc(O[C@@H]2CC[C@@H](C)N(C(=O)c3ncccc3-n3nccn3)C2)c1` [Example 9, 2-({(2R,5R)-2-methyl-5-[(4-methylpyridin-2-yl)oxy]piperidin-1-yl}carbonyl)-3-(2H-1,2,3-triazol-2-yl)pyridine], the results for the IC50 in assay [1] and in assay [2] were 45 nM and 1770 nM, respectively. Consider `Cc1ccnc(O[C@@H]2CC[C@@H](C)N(C(=O)c3ccccc3C3(C#N)CC3)C2)c1` [Example 10, 1-[2-({(2R,5R)-2-methyl-5-[(4-methylpyridin-2-yl)oxy]piperidin-1-yl}carbonyl)phenyl]cyclopropanecarbonitrile], for which the values for the IC50 in assay [1] and in assay [2] were 28 nM and 1210 nM, respectively. Regarding `Cc1ccnc(O[C@@H]2CC[C@@H](C)N(C(=O)c3cc(F)ccc3-n3nccn3)C2)c1` [Example 11, 2-{[(3R,6R)-1-{[5-fluoro-2-(2H-1,2,3-triazol-2-yl)phenyl]carbonyl}-6-methylpiperidin-3-yl]oxy}-4-methylpyridine], the figures for the half-inhibitory concentration (IC50) in assay [1] and in assay [2] were 32 nM and 1050 nM, respectively. For the compound `Cc1ccnc(O[C@@H]2CC[C@@H](C)N(C(=O)c3ccc(F)cc3-c3nc(C)no3)C2)c1` [Example 12, 2-{[(3R,6R)-1-{[4-fluoro-2-(3-methyl-1,2,4-oxadiazol-5-yl)phenyl]carbonyl}-6-methylpiperidin-3-yl]oxy}-4-methylpyridine], the figures for the IC50 in assay [1] and in assay [2] were 299 nM and 9510 nM, respectively. In the case of `Cc1ccnc(O[C@@H]2CC[C@@H](C)N(C(=O)c3cccc(F)c3-n3nccn3)C2)c1` [Example 13, 2-{[(3R,6R)-1-{[3-fluoro-2-(2H-1,2,3-triazol-2-yl)phenyl]carbonyl}-6-methylpiperidin-3-yl]oxy}-4-methylpyridine], the concentration for half-maximal inhibition (IC50) came to 26 nM in assay [1] and 964 nM in assay [2]. `Cc1ccnc(O[C@@H]2CC[C@@H](C)N(C(=O)c3ccccc3CS(C)(=O)=O)C2)c1` [Example 14, 4-methyl-2-{[(3R,6R)-6-methyl-1-({2-[(methylsulfonyl)methyl]phenyl}carbonyl)piperidin-3-yl]oxy}pyridine]: the values for the IC50 in assay [1] and in assay [2] were 73 nM and more than 10000 nM, respectively. For the compound `COCc1ccccc1C(=O)N1C[C@H](Oc2cc(C)ccn2)CC[C@H]1C` [Example 15, 2-{[(3R,6R)-1-{[2-(methoxymethyl)phenyl]carbonyl}-6-methylpiperidin-3-yl]oxy}-4-methylpyridine], the half-maximal inhibitory concentration (IC50) in assay [1] is 226 nM; in assay [2], more than 10000 nM. Regarding `Cc1ccnc(O[C@@H]2CC[C@@H](C)N(C(=O)c3nccnc3-c3ccccn3)C2)c1` [Example 16, 2-({(2R,5R)-2-methyl-5-[(4-methylpyridin-2-yl)oxy]piperidin-1-yl}carbonyl)-3-pyridin-2-ylpyrazine], the values for the IC50 in assay [1] and in assay [2] were 40 nM and 3100 nM, respectively. In the case of `Cc1ccnc(O[C@@H]2CC[C@@H](C)N(C(=O)c3cccnc3-n3cc(C)cn3)C2)c1` [Example 17, 3-({(2R,5R)-2-methyl-5-[(4-methylpyridin-2-yl)oxy]piperidin-1-yl}carbonyl)-2-(4-methyl-1H-pyrazol-1-yl)pyridine], the IC50 in assay [1] was determined as 33 nM; in assay [2], 1750 nM. Consider `Cc1ccnc(O[C@@H]2CC[C@@H](C)N(C(=O)c3ncccc3-c3noc(C)n3)C2)c1` [Example 18, 2-({(2R,5R)-2-methyl-5-[(4-methylpyridin-2-yl)oxy]piperidin-1-yl}carbonyl)-3-(5-methyl-1,2,4-oxadiazol-3-yl)pyridine], for which the IC50 in assay [1] amounted to 106 nM; in assay [2], 7030 nM. Consider `Cc1ccnc(O[C@@H]2CC[C@@H](C)N(C(=O)c3ccccc3-c3ncccn3)C2)c1` [Example 19, ((2R,5R)-2-methyl-5-((4-methylpyridin-2-yl)oxy)piperidin-1-yl)(2-(pyrimidin-2-yl)phenyl)methanone], for which the IC50 in assay [1] came to 27 nM; in assay [2], 980 nM.

As for `Cc1ccnc(O[C@@H]2CC[C@@H](C)N(C(=O)c3ccc(F)cc3-c3ncccn3)C2)c1` [Example 20, 2-[5-fluoro-2-({(2R,5R)-2-methyl-5-[(4-methylpyridin-2-yl)oxy]piperidin-1-yl}carbonyl)phenyl]pyrimidine], the half-maximal inhibitory concentration (IC50) in assay [1] is 42 nM; in assay [2], 1580 nM.

Values taken from patent US20160368898A1, “2-PYRIDYLOXY-4-METHYL OREXIN RECEPTOR ANTAGONISTS” (MERCK SHARP & DOHME CORP., priority 2013, published 2016).
